In patent US8440724B2, “Inhibiting neurotransmitter reuptake” (Mayo Foundation for Medical Education and Research, priority 2008, dated 2013):
Entries after “also recorded” stand apart in the source; their conditions may differ. Like-named read-outs stand apart in the source and are kept apart here.

Experiments:
CYP2D6 = biological target: T1, CYP2D6 (Homo sapiens, UniProt P10635); experiment: CYP2D6 inhibition, CYP2D6/AMMC kit (BD Biosciences), fluorescent substrate; type: in vitro ADME
T1 construct: purchased BD Biosciences 459200
T1 sequence (P10635 whole entry): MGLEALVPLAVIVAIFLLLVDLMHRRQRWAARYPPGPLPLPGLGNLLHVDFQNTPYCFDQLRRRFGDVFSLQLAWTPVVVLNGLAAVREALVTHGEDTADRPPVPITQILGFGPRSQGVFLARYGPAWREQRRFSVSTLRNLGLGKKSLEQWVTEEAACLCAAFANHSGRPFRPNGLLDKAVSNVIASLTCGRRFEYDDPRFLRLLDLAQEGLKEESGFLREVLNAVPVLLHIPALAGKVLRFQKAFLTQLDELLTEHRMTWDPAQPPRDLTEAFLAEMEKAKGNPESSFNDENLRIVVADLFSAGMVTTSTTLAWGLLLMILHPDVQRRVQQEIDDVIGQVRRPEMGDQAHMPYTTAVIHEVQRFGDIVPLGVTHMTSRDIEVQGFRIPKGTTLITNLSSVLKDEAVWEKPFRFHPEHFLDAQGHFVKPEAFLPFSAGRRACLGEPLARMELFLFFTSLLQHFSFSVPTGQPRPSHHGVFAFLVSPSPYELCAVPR
From the text: This kit includes the use of a fluorescent P450 substrate (AMMC or 3-[2-(N,N-diethyl-N-methylamino)ethyl]-7-methoxy-4-methylcoumarin) and recombinant human P450.

[1] = biological target: T2, human dopamine transporter (hDAT) (Homo sapiens, UniProt Q01959); experiment: Radioligand binding to cloned hDAT, [3H]WIN35428, HEK-293 cell membranes
T2 construct: expressed in transfected cells; host or cells: HEK-293, stably transfected
T2 sequence (Q01959 whole entry): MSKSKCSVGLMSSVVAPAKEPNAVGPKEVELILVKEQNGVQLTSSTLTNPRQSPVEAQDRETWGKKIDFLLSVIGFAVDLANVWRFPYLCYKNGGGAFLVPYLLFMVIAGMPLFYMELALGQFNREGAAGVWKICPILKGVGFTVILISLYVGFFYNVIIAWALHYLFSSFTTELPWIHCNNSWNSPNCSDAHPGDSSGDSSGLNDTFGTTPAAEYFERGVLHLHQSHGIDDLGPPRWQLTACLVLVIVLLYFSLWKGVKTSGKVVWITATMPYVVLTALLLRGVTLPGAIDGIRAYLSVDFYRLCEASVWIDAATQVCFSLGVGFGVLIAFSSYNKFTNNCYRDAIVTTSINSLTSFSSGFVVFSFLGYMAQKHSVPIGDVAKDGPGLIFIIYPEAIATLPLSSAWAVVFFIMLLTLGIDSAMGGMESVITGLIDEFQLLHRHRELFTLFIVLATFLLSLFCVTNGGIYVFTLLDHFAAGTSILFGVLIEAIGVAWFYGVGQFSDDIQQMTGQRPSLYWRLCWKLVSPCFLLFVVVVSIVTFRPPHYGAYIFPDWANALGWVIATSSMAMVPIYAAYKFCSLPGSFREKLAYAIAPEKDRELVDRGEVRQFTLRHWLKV
Description: (§1) HEK-293 cells expressing the recombinant hSERT or hDAT were incubated with Dulbecco's modified Eagles medium (MEM) supplemented with 0.1 mM nonessential amino acid solution for MEM, 5% v/v fetal bovine serum and 1 U/mL penicillin/streptomycin solution. Cells expressing the hNET transporter were incubated with Dulbecco's modified Eagles medium supplemented with 10% v/v fetal bovine serum and 100 U/mL penicillin/streptomycin solution and 2 mM L-glutamine. The cells were grown until 70-80% confluent on 175 cm^2 flasks in a humidified 10% CO2/90% air environment at 37° C., with the selecting antibiotic Geneticin sulfate at 250 μg/mL. The cells were incubated in 10% CO2, 90% air at 37° C. and 100% humidity.
(§2) Cell membranes containing hSERT, hNET, or hDAT were prepared from the cell lines to assay ligand binding for each of the transporters. […] The washed cells were incubated for 5 minutes at 37° C. in 10 mL solution 1 containing 100 mM ethylene glycol-bis N,N,N′,N′-tetraacetic acid (EGTA). The cells were then scraped from the flask surface with a rubber spatula, placed into a centrifuge tube, and collected by centrifugation at 1000×g for 5 minutes at 4° C. The resulting supernatant was discarded, and the cell pellet was resuspended in 0.5 to1.0 mL of the appropriate binding buffer (described below). The resuspended cell pellet was homogenized using a Polytron for 10 seconds at setting 6. The resulting homogenate was centrifuged at about 36,000×g for 10 minutes at 4° C. The supernatant was discarded, and the pellet was resuspended in the same volume of the appropriate binding buffer and centrifuged again. The supernatant was discarded, and the final pellet containing cell membranes was resuspended in the appropriate binding buffer and stored at −80° C. until use.
To assess binding to the cloned hDAT, cells expressing hDAT were homogenized in 50 mM Tris-HCl with 120 mM NaCl (pH 7.4). The binding reaction contained 15 μg cell membrane protein, 1 nM [^3H]WIN35428 (WIN35428, [N-methyl-^3H], specific activity 85.9 Ci/mmol; PerkinElmer, Boston, Mass.), and varying concentrations of either unlabeled WIN35428 or the test compound. A reaction to determine non-specific binding contained 15 μg cell membrane protein, 1 nM [^3H]WIN35428, and 10 μM final concentration of unlabeled WIN35428. The reactions were incubated at 22° C. for 1 hour. Following incubation, the reactions were terminated by rapid filtration through separate GF/B filter strips pretreated with 0.2% polyethylenimine in a 48-well Brandel cell harvester. The cell membrane-containing filter strips were then rinsed five times with ice-cold 0.9% NaCl. After rinsing, individual filters were cut from the strip and placed in a scintillation vial containing 6.5 mL of Redi-Safe (Beckman-Coulter, Fullerton, Calif.).
(§3) The program was modified to calculate the Hill coefficient (nH). Data are presented as geometric mean±S.E.M. of at least three independent experiments. One-component models and two-component models were compared using the root mean square error of each fit and the F test.

[2] = biological target: T3, human serotonin transporter (hSERT) (Homo sapiens, UniProt P31645); experiment: Radioligand binding to cloned hSERT, [3H]citalopram, HEK-293 cell membranes; conditions: for Kd: Geometric Mean ± SEM, HCl salts, read-out: Equilibrium Dissociation Constant (KD) for Transporter Binding, hSERT (S); for Binding at hSERT compared to PRC200-SS: in words
T3 construct: expressed in transfected cells; host or cells: HEK-293, stably transfected
T3 sequence (P31645 whole entry): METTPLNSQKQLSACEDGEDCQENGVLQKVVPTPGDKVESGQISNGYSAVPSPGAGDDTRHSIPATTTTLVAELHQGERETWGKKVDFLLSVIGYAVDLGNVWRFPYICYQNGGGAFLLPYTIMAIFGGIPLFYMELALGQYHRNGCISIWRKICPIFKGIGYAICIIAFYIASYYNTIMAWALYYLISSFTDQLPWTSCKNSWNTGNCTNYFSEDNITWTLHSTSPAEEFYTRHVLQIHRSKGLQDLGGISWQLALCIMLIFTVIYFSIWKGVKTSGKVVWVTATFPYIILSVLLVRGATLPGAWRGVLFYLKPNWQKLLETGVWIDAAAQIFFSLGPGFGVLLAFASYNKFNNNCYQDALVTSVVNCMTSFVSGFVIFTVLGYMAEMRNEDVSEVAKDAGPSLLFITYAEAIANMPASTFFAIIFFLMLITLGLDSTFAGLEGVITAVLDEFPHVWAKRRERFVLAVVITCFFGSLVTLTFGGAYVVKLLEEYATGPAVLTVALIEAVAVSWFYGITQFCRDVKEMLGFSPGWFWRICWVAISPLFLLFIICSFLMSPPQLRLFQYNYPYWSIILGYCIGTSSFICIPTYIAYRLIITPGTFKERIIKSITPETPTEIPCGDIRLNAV
Description: as §1, §2
Radioligand binding assays for the indicated transporters were performed as follows. To assess binding to the cloned hSERT, cells expressing hSERT were homogenized in 50 mM Tris-HCl with 120 mM NaCl and 5 mM KCl (pH 7.4). The binding reaction consisted of 10 μg cell membrane protein, […] [^3H]citalopram (citalopram, [N-methyl-^3H], specific activity 79.0 Ci/mmol; PerkinElmer, Boston, Mass.), and varying concentrations of either unlabeled citalopram or the test compound. A reaction to determine non-specific binding consisted of 10 μg cell membrane protein, 0.5 nM [^3H]citalopram, and 1 μM final concentration of unlabeled citalopram. The reactions were incubated at 22° C. for 60 minutes. Following incubation, the reactions were terminated by rapid filtration through separate GF/B filter strips pretreated with 0.2% polyethylenimine in a 48-well Brandel cell harvester. The cell membrane-containing filter strips were then rinsed five times with ice-cold 0.9% NaCl. After rinsing, individual filters were cut from the strip and placed in a scintillation vial containing 6.5 mL of Redi-Safe (Beckman-Coulter, Fullerton, Calif.).
as §3

hSERT, hNET, hDAT = experiment: Human transporter binding: rank order and range of potency over the three transporters; conditions: for Potency (rank-order of potency of binding; S = hSERT, N = hNET, D = hDAT): from KD values; for Potency Range (difference between most potent and least potent binding): ratio of KD over hSERT, hNET, hDAT
From the text: as §3

[3] = biological target: T4, human norepinephrine transporter (hNET) (Homo sapiens, UniProt P23975); experiment: Radioligand binding to cloned hNET, [3H]nisoxetine, HEK-293 cell membranes; conditions: Geometric Mean ± SEM; HCl salts; read-out: Equilibrium Dissociation Constant (KD) for Transporter Binding, hNET (N)
T4 construct: expressed in transfected cells; host or cells: HEK-293, stably transfected
T4 sequence (P23975 whole entry): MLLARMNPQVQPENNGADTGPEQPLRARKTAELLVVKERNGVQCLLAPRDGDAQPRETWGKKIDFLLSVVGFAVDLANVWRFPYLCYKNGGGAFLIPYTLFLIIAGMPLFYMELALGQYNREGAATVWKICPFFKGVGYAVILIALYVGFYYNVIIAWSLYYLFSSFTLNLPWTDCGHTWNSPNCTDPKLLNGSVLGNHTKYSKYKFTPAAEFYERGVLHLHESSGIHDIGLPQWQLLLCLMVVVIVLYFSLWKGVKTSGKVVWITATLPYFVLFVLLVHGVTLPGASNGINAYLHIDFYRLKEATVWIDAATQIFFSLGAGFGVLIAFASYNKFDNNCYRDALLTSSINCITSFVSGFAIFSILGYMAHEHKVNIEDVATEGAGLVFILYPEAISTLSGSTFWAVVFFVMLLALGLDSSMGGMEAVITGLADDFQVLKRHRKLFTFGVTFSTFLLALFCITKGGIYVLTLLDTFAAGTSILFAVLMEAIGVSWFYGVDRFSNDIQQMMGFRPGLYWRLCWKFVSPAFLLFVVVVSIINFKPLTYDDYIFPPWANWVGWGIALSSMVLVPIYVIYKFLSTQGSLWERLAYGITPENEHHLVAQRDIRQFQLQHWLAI
Description: as §1, §2
To assess binding to the cloned hNET, cells expressing hNET were homogenized in 50 mM Tris-HCl with 300 mM NaCl and 5 mM KCl (pH 7.4). The binding reaction consisted of 5 μg cell membrane protein, 0.5 nM [^3H]nisoxetine (nisoxetine HCl, [N-methyl-^3H], specific activity 82.0 Ci/mmol; Amersham, Arlington Hts., Ill.), and varying concentrations of either unlabeled nisoxetine or the test compound. A reaction to determine non-specific binding consisted of 5 μg cell membrane protein, 0.5 nM [^3H]nisoxetine, and 1 μM final concentration of unlabeled nisoxetine. The reactions were incubated at 22° C. for 60 minutes. Following incubation, the reactions were terminated by rapid filtration through separate GF/B filter strips pretreated with 0.2% polyethylenimine in a 48-well Brandel cell harvester. The cell membrane-containing filter strips were then rinsed five times with ice-cold 0.9% NaCl. After rinsing, individual filters were cut from the strip and placed in a scintillation vial containing 6.5 mL of Redi-Safe (Beckman-Coulter, Fullerton, Calif.).
as §3

Male Sprague-Dawley rats = experiment: Forced swim test in rats; type: in vivo, rat; conditions: for Antidepressant activity in forced swim test compared with imipramine (15 mg/kg IP): FIG. 12A
Description: When rats are placed in a cylinder of water from which they cannot escape, they will remain immobile in the water for the majority of the test.
Water was changed between trials, and the procedure involved a pretest and a 5-minute test separated by 24 hours. During the pretest, rats (adapted to the experimental room for no less than one hour) were placed in the cylinder for 15 minutes. Following this initial exposure, the rats were dried with towels and transferred to a “drying cage” situated under a warming lamp. […] The following day, rats were transferred to the experimental room and acclimated for at least one hour.
The rat was considered immobile when floating motionless or making only those movements necessary to keep its head above the surface of the water. Scores for each behavior (swimming or immobility) were expressed as total counts per 5-minute session. Statistical analysis was performed using ANOVA followed by the Tukey test for post-hoc comparisons.

hERG = hERG (Homo sapiens, UniProt Q12809); experiment: hERG assay: block of rubidium ion (Rb+) efflux from cells expressing hERG
hERG, sequence (Q12809 whole entry): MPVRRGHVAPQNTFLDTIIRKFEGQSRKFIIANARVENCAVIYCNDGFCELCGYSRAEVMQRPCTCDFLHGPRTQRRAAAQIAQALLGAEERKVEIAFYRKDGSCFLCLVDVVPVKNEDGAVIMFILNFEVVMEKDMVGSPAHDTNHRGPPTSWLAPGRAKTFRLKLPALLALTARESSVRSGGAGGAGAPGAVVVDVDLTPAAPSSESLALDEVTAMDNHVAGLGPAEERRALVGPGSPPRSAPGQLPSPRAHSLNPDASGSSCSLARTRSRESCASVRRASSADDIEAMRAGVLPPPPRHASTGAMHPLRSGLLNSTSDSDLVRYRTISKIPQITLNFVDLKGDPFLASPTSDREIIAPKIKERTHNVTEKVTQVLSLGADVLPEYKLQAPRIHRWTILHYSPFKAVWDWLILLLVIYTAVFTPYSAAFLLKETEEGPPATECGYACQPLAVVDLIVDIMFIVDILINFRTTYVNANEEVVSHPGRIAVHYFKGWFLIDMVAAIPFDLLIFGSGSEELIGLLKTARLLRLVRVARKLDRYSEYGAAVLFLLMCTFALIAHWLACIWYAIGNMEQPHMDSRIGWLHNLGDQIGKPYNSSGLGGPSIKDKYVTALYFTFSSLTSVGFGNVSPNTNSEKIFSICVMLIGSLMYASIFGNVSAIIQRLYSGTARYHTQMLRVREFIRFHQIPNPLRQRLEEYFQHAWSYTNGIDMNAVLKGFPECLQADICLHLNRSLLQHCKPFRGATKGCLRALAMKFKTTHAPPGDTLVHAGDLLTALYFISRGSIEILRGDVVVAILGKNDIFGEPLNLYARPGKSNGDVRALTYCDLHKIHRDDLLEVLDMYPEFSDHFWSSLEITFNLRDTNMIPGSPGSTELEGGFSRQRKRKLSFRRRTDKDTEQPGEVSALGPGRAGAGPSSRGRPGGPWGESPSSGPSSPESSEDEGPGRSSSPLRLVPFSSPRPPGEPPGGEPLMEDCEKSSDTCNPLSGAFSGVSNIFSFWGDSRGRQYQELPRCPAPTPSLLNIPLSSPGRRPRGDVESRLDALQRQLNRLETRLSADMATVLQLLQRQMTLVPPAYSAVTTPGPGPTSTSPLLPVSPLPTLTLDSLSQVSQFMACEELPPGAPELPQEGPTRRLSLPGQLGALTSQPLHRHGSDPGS
Description: Human “ether-a-go-go” (hERG) is an ion channel. Blockade of this channel can be predictive of causing cardiac arrhythmias in humans. hERG assays were performed to measure the ability of a compound to block rubidium ion (Rb^+) efflux from cells expressing hERG. Cells were pre-loaded with Rb^+, incubated with test compound, and then exposed to a buffer that opens the channel and allows the efflux of ions. Compounds as powder were dissolved in 100% DMSO to prepare 100 mM stock solutions. […] The stocks were stored at 23° C.
The range of doses for the test compounds was 30 nM through 100,000 nM.

[4] = tested on: rat 5-HT, NE and DA transport, synaptosomal preparations; experiment: Rat brain synaptosomal transport: rank order of potency; type: biochemical
Description: The dissected tissues were separately homogenized in 20 volumes (cortical) or 40 volumes (striatal) of ice-cold, oxygenated HEPES buffer 0.32 M sucrose containing 11 mM glucose (pH 7.4) in a glass Potter-Elvehjem homogenizer with Teflon® pestle (8 strokes, 900 rpm). The homogenates were centrifuged at 1,000×g for 10 minutes. The resulting supernatant was decanted and further centrifuged at 20,000×g for 20 minutes at 4° C. […] The synaptosomal protein concentration was determined by using the BCA assay (Pierce Biotechnology Inc, Rockford, Ill.), according to the manufacturer's instructions. Synaptosomal protein (1.0-2.5 mg) was suspended in 1 mL oxygenated incubation buffer as defined above. Test amine compound was pre-incubated with the synaptosomal preparation for 30 minutes at 37° C. in a shaking water bath (80 oscillations/minute).

[5] = Geometric Mean ± SEM, HCl salts, read-out: Equilibrium Dissociation Constant (KD) for Transporter Binding, hDAT (D)

| SMILES | Kd [1, 5] | Kd [2] | Potency (rank-order of potency of binding; S = hSERT, N = hNET, D = hDAT) (hSERT, hNET, hDAT) | Potency Range (difference between most potent and least potent binding) (hSERT, hNET, hDAT) | Kd [3] | Immobility in forced swim test vs saline (Male Sprague-Dawley rats; 5 mg/kg IP) | Swimming in forced swim test vs saline (Male Sprague-Dawley rats; 5 mg/kg IP) | Antidepressant activity in forced swim test compared with imipramine (15 mg/kg IP) (Male Sprague-Dawley rats; 5 mg/kg IP) | Kd [1] | Binding at hSERT compared to PRC200-SS [2] | other results |
| --- | --- | --- | --- | --- | --- | --- | --- | --- | --- | --- | --- |
| CNC[C@@H](c1ccc2ccccc2c1)[C@H](N)c1ccccc1 [MCJ001-NH2-SR, (2R,3S)-N1-methyl-2-(naphthalen-2-yl)-3-phenylpropane-1,3-diamine] | 260 ± 20 nM | 180 ± 10 nM | N > S > D | 1.6 fold | 166 ± 8 nM |  |  |  |  |  | IC50 (CYP2D6): 4100 nM |
| CNC[C@H](c1ccc2ccccc2c1)[C@H](Cl)c1ccccc1 [MCJ001-Cl-SS, (2S,3S)-3-chloro-N-methyl-2-(naphthalen-2-yl)-3-phenylpropan-1-amine] |  | 1.1 ± 0.1 nM | S > N > D | 71 fold | 3.7 ± 0.5 nM | statistically (P<0.04) less immobility | statistically (P<0.04) more swimming behavior | antidepressant activity that was similar to that observed in rats treated with the positive control | 78 ± 5 nM | greater binding at hSERT | IC50 (hERG): 45400 nM |
| CN1CO[C@H](c2ccccc2)[C@@H](c2ccc3ccccc3c2)C1 [MCJ001-OH-Cyc-SS, (5S,6S)-3-methyl-5-(naphthalen-2-yl)-6-phenyl-1,3-oxazinane] |  | 1.8 ± 0.2 nM | S > N > D | 29 fold | 2.7 ± 0.3 nM |  |  | antidepressant activity that was similar to that observed in rats treated with the positive control | 52 ± 5 nM | greater binding at hSERT | Immobility in forced swim test, 5 mg/kg IP vs 5 mg/kg PO of the same compound (Male Sprague-Dawley rats): statistically (P≦0.04) less immobility than rats treated with MCJ001-OH-Cyc-SS (5 mg/kg PO); Immobility in forced swim test vs saline (Male Sprague-Dawley rats; 5 mg/kg IP, 5 mg/kg): statistically (P<0.04) less immobility; also recorded: statistically (P≦0.04) less immobility; Swimming in forced swim test vs saline (Male Sprague-Dawley rats; 5 mg/kg IP, 5 mg/kg): statistically (P<0.04) more swimming behavior; Climbing in forced swim test vs saline (Male Sprague-Dawley rats; 5 mg/kg PO): statistically (P≦0.04) more climbing; Immobility in forced swim test vs saline (Male Sprague-Dawley rats; 5 mg/kg PO): statistically (P≦0.04) less immobility; Swimming in forced swim test vs saline (Male Sprague-Dawley rats; 5 mg/kg PO): statistically (P≦0.04) more swimming |
| CNC[C@H](c1ccc2ccccc2c1)[C@@H](Cl)c1ccccc1 [MCJ001-Cl-RS, (2S,3R)-3-chloro-N-methyl-2-(naphthalen-2-yl)-3-phenylpropan-1-amine] |  | 1.1 ± 0.1 nM | S > D > N | 9.5 fold | 10.4 ± 0.4 nM | statistically (P<0.04) less immobility | statistically (P<0.04) more swimming behavior | antidepressant activity that was similar to that observed in rats treated with the positive control | 7.9 ± 0.4 nM | greater binding at hSERT | Binding at hDAT compared to PRC200-SS ([1]; in words): several fold more potent binding at hDAT |
| CNC[C@H](c1ccc2ccccc2c1)[C@H](OC(C)=O)c1ccccc1 [MCJ001-OAc-SS, (1S,2S)-3-(methylamino)-2-(naphthalen-2-yl)-1-phenylpropyl acetate] | 150 ± 20 nM | 55 ± 6 nM | N > S > D | 3.4 fold |  | statistically (P<0.04) less immobility | statistically (P<0.04) more swimming behavior | antidepressant activity that was similar to that observed in rats treated with the positive control |  |  | Potency of inhibition at CYP2D6, in words (CYP2D6; compared with PRC200-SS): markedly reduced the potency of inhibition at CYP2D6; IC50 (CYP2D6; recombinant human P450, AMMC substrate, read-out: Mean CYP2D6 (IC50)): 600 nM; Blocking of hERG channel compared with PRC200-SS (hERG; in words): weaker than PRC200-SS at blocking this channel; IC50 (hERG; read-out: hERG (IC50), Rb+ efflux, eight doses in duplicate): 78800 nM |
| CN1Cc2c(N)cccc2C(c2ccccc2)C1 (stereo not shown) [Nomifensine, reference compound] |  |  | N > D > S |  |  |  |  |  |  |  | Potency (rank order, transport into rat brain synaptosomal preparations) [4]: N > D > S |
